Laboratory results published in PMC4208647, “Essential role of vesicular nucleotide transporter in vesicular storage and release of nucleotides in platelets” (Physiological Reports, 2014).
Like-named read-outs stand apart in the source and are kept apart here.

Key:
Type in all cases: biochemical
[1] = molecular target: T1, VGAT (vesicular GABA transporter) (Rattus norvegicus, UniProt O35458); assay: inhibition of valinomycin-evoked radiolabelled substrate uptake into proteoliposomes
T1 construct: gene Slc32a1; recombinant, expressed in insect cells or E. coli, Ni-NTA purified, reconstituted in asolectin liposomes
T1 sequence (O35458 1-525): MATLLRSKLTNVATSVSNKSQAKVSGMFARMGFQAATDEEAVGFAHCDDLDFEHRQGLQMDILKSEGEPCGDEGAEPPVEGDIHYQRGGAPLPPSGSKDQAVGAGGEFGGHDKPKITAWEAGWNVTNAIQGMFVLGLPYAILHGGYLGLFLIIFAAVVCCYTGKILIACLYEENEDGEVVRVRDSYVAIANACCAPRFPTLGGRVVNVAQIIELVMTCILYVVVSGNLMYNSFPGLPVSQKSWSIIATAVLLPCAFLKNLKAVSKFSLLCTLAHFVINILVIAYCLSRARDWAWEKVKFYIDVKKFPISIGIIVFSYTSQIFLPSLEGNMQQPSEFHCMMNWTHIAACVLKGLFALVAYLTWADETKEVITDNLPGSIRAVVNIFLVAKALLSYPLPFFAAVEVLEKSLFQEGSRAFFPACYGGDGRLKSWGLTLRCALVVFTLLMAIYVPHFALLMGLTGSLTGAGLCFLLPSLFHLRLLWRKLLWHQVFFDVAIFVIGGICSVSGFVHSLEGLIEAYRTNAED
Description: inhibition of valinomycin-evoked radiolabelled substrate uptake into proteoliposomes on VGAT (vesicular GABA transporter)

[2] = molecular target: T2, VMAT2 (vesicular monoamine transporter 2) (Rattus norvegicus, UniProt Q01827); assay: inhibition of ATP-driven radiolabelled substrate uptake into proteoliposomes with F-ATPase
T2 construct: gene Slc18a2; recombinant, expressed in insect cells or E. coli, Ni-NTA purified, co-reconstituted with bacterial F-ATPase in liposomes
T2 sequence (Q01827 whole entry): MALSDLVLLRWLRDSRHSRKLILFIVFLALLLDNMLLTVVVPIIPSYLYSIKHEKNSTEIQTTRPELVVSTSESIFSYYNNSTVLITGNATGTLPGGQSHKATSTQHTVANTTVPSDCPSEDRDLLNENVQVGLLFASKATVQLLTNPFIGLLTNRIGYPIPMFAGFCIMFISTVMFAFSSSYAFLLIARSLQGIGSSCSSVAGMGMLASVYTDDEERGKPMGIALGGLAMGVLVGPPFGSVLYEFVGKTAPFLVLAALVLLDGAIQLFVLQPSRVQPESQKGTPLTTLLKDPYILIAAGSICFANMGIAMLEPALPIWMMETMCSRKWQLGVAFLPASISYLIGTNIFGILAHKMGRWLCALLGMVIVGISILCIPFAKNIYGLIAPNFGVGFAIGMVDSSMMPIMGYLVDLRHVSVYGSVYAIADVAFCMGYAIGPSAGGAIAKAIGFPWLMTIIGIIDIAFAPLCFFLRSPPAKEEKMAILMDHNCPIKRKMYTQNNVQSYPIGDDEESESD
Description: inhibition of ATP-driven radiolabelled substrate uptake into proteoliposomes with F-ATPase on VMAT2 (vesicular monoamine transporter 2)

[3] = molecular target: T3, VAChT (vesicular acetylcholine transporter) (Homo sapiens, UniProt Q16572); assay: as above
T3 construct: gene SLC18A3; recombinant, expressed in insect cells or E. coli, Ni-NTA purified, co-reconstituted with bacterial F-ATPase in liposomes
T3 sequence (Q16572 1-532): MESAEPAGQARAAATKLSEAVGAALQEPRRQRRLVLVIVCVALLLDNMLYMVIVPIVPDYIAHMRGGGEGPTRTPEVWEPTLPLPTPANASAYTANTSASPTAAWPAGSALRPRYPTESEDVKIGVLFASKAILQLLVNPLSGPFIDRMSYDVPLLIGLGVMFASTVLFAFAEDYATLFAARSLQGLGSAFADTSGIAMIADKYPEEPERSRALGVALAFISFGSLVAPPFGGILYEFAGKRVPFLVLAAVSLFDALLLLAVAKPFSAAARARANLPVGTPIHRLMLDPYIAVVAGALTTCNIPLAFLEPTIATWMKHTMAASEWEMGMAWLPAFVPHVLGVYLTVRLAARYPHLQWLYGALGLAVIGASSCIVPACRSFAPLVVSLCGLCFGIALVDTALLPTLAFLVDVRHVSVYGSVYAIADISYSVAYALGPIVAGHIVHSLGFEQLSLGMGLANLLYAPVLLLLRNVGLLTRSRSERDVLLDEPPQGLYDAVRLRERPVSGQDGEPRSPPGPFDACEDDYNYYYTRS
Description: inhibition of ATP-driven radiolabelled substrate uptake into proteoliposomes with F-ATPase on VAChT (vesicular acetylcholine transporter)

[4] = molecular target: T4, VNUT (vesicular nucleotide transporter, SLC17A9 protein) (Homo sapiens, UniProt Q9BYT1); assay: inhibition of valinomycin-evoked radiolabelled substrate uptake into proteoliposomes
T4 construct: recombinant, expressed in insect cells or E. coli, octylglucoside-solubilized, Ni-NTA purified, reconstituted in asolectin liposomes
T4 sequence (Q9BYT1 1-436): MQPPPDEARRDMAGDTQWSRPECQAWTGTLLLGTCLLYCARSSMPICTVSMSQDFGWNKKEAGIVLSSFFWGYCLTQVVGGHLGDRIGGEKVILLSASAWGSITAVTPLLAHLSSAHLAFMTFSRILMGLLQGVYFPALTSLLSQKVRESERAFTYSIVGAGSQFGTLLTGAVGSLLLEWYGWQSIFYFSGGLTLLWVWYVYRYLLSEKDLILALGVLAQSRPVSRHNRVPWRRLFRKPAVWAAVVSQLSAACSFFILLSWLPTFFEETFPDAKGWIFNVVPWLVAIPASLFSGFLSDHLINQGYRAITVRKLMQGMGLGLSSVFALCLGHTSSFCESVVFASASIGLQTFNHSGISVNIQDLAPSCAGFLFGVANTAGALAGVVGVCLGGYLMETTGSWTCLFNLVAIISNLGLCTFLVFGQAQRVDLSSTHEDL

[5] = molecular target: T5, VEAT (vesicular excitatory amino acid transporter) (Mus musculus, UniProt Q8BN82); assay: as above
T5 construct: gene Slc17a5; recombinant, expressed in insect cells or E. coli, Ni-NTA purified, reconstituted in asolectin liposomes
T5 sequence (Q8BN82 1-495): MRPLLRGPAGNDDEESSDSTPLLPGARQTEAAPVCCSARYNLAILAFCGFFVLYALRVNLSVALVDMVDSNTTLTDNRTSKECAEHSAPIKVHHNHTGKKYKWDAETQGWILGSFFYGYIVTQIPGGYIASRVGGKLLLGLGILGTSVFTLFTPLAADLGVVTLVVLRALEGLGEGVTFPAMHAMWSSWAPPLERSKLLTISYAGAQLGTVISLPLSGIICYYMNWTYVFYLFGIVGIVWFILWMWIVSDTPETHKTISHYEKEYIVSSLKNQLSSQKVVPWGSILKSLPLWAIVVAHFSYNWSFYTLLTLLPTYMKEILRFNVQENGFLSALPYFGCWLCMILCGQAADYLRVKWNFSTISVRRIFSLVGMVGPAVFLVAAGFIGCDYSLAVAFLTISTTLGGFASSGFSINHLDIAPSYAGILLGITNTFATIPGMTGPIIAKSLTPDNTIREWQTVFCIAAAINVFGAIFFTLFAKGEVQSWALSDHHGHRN
Description: inhibition of valinomycin-evoked radiolabelled substrate uptake into proteoliposomes on VEAT (vesicular excitatory amino acid transporter)

[6] = read-out: IC50 (μmol/L) / Acetoacetate
[7] = read-out: IC50 (μmol/L) / Glyoxylate

IC50 [1] [µM] | IC50 [2] [µM] | IC50 [3] [µM] | IC50 [4, 6] [µmol/L] | IC50 [5, 6] [µmol/L] | IC50 [4, 7] [µmol/L] | IC50 [5, 7] [µmol/L] | SMILES
> 10000 | > 10000 | > 10000 | 190 | 130 | – | – | CC(=O)CC(=O)O [acetoacetate]
> 10000 | > 10000 | > 10000 | – | – | 4.1 | 52 | O=CC(=O)O [glyoxylate]
